Results: patent publication US7129198B1, “Use of benzotriazole UV absorbers” (Ciba Specialty Chemicals Corporation, priority 1999, dated 2006)

Key:
Assay in all cases: MIC in microtitre plates
Format in all cases: cell-based
[1] = system: Micrococcus luteus ATCC 9341; settings: ATCC9341, 48 hours at 37° C., ≦20% growth
Description: (§1) Mycological slant agar for the preculture of moulds. The test substances are predissolved in dimethyl sulfoxide (DMSO) and tested in a dilution series of 1:2. The test organisms are cultured overnight in CASO bouillon and rinsed off with 10 ml of 0.85% sodium chloride solution (+0.1% TritonX-100). The test organisms are adjusted to an organism count of 1–5×10^6 CFU/ml with 0.85% sodium chloride solution. The test substances are prepipetted into microtitre plates in an amount of 8 μl per well. Previously diluted organism suspensions are diluted 1:100 in CASO bouillon and added to the test substances in an amount of 192 μl per well. The test batches are incubated for 48 hours at 37° C. After incubation, the growth is determined by reference to the turbidity of the test batches (optical density) at 620 nm in a microplate reader. The minimum inhibitory concentration (MIC value) is the concentration of substance at which (compared with the growth of the control) an appreciable inhibition of the growth (≦20% growth) of the test organisms is ascertained. One microtitre plate is used for each test organism and substance concentration. All substances are tested in duplicate.

[2] = system: Streptococcus mutans ATCC 25175; settings: ATCC25175, 48 hours at 37° C., ≦20% growth
Description: as §1

[3] = system: Enterococcus hirae ATCC 10541; settings: ATCC10541, 48 hours at 37° C., ≦20% growth
Description: as §1

[4] = system: Trichophyton rubrum DSM 4167; settings: DSM4167, 48 hours at 37° C., ≦20% growth
Description: as §1

P. ovale ATCC 14521 = settings: Pityrosporum ovale, ATCC14521, 48 hours at 37° C., ≦20% growth
Description: as §1

[5] = system: Epidermophyton floccosum DSM 10709; settings: DSM10709, 48 hours at 37° C., ≦20% growth
Description: as §1

[6] = system: Corynebacterium xerosis ATCC 373; settings: ATCC373, 48 hours at 37° C., ≦20% growth
Description: as §1

[7] = system: S. epidermidis ATCC 12228; settings: Staphylococcus epidermidis, ATCC12228, 48 hours at 37° C., ≦20% growth
Description: as §1

[8] = system: Klebsiella pneumoniae ATCC 4352; settings: ATCC4352, 48 hours at 37° C., ≦20% growth
Description: as §1

[9] = system: Candida albicans ATCC 10259; settings: ATCC10259, 48 hours at 37° C., ≦20% growth
Description: as §1

[10] = system: Salmonella choleraesuis ATCC 9184; settings: Salmonella enterica, 48 hours at 37° C., ≦20% growth
Description: as §1

[11] = system: Trichophyton mentagrophytes ATCC 9533; settings: ATCC9533, 48 hours at 37° C., ≦20% growth
Description: as §1

[12] = system: Trichoderma longibrachiatum DSM 768; settings: DSM768, 48 hours at 37° C., ≦20% growth
Description: as §1

MIC [1]: 3.12 µg/mL
MIC [2]: 3.12 µg/mL
MIC [3]: 3.12 µg/mL
MIC [4]: 25 µg/mL
MIC (P. ovale ATCC 14521): > 25 µg/mL
MIC [5]: 12.5 µg/mL
MIC [6]: 3.12 µg/mL
MIC [7]: 3.12 µg/mL
MIC [8]: > 100 µg/mL
MIC [9]: 6.25 µg/mL
MIC [11]: 100 µg/mL
MIC [12]: 50 µg/mL
SMILES: CCCCCCCC[N+](CC)(CC)CCCNC(=O)CCc1cc(-n2nc3ccccc3n2)c(O)c(C(C)(C)C)c1.[Br-] [compound of formula (108)]
MIC [10]: > 100 µg/mL
